Like-named read-outs stand apart in the source and are kept apart here.
Experiments:
human ALR2 = target: T1, human ALR2 (Homo sapiens, UniProt P15121); test: ALR2 inhibition (in vitro reduction of D,L-glyceraldehyde); assay type: biochemical
T1 construct: purchased WAKO Pure Chemical Industries, Ltd. (Japan); host or cells: baculovirus-insect cell expression system
Procedure: Human ALR2 was purchased from WAKO Pure Chemical Industries, Ltd. (Japan), which was purified from the culture medium of baculovirus-insect cell expression system. […] ALR2 inhibition was determined spectrophotometrically according to the procedure described previously.

[1] = ORACFL radical absorbance capacity assay
Excerpt: With the CHCA scaffold, we hypothesized that 5a–j should have antioxidant activity. Therefore, a radical absorbance capacity assay (ORACFL)[41] was employed to assess their capacities. This method is based on the inhibition of peroxyl-radical-induced oxidation initiated by thermal decomposition of azo-compounds, in this case 2,2′-azo-bis (2-amidinopropane) dihydrochloride (AAPH). Trolox (6-hydroxy-2,5,7,8-tetramethylchroman-2-carboxylic acid) was used as a standard reference. Data is expressed as micromoles of Trolox equivalents (TE) per […] of sample (μmol TE/ml or U/ml).
Antioxidant capacity was determined according to the procedure described previously.

[2] = human ALR2, D,L-glyceraldehyde as substrate, read-out: IC50 (ALR2 inhibition)

Row | Compound | IC50 (human ALR2) | ORAC ([1]; 3.125 μg/ml) | ORAC ([1]; 6.25 μg/ml) | ORAC ([1]; 12.5 μg/ml) | IC50 (human ALR2; [2]) | melting point
1 | N#CC(=Cc1ccc(O)cc1)C(=O)O [CHCA, α-cyano-4-hydroxycinnamic acid] | 133 ± 1.8 nM | 52.3 ± 3.1 U/ml | 51.2 ± 1.1 U/ml | 48.8 ± 1.3 U/ml |  | 
2 | CC(=O)N1CCC[C@H]1C(=O)NCCNC(=O)/C(C#N)=C/c1ccc(O)cc1 [Compound 5a, (S,E) - 1 - acetyl -N-(2-(2-cyano-3-(4-hydroxyphenyl)acrylamido)ethyl)pyrroli-dine-2-carboxamide] |  | 57.0 ± 2.3 U/ml | 52.4 ± 2.1 U/ml | 49.8 ± 1.7 U/ml | 137 ± 2.9 nM | 
3 | CC(=O)N1CCC[C@@H]1C(=O)NCCNC(=O)/C(C#N)=C/c1ccc(O)cc1 [Compound 5b, (R,E) -1-acetyl - N - (2-(2-cyano-3-(4-hydroxyphenyl)acrylamido)ethyl)pyrroli-dine-2-carboxamide] |  | 47.1 ± 2.4 U/ml | 44.1 ± 2.5 U/ml | 42.9 ± 3.3 U/ml | 136 ± 2.4 nM | 
4 | CC(=O)N[C@@H](COCc1ccccc1)C(=O)NCCNC(=O)/C(C#N)=C/c1ccc(O)cc1 [Compound 5c, (S,E) – N - (2 - (2-acetamido-3-(benzyloxy)propanamido)ethyl)-2-cyano-3-(4-hydroxyphenyl)acrylamide] |  | 32.4 ± 1.8 U/ml | 30.4 ± 1.7 U/ml | 26.4 ± 2.9 U/ml | 316 ± 6.2 nM | 176 to 178 °C
5 | CC(=O)N[C@@H](COCc1ccccc1)C(=O)NCCCNC(=O)/C(C#N)=C/c1ccc(O)cc1 [Compound 5e, (S,E) – N - (3-(2-acetamido-3-(benzyloxy)propanamido)propyl)-2-cyano-3-(4-hydroxyphenyl)acrylamide] |  | 65.7 ± 2.7 U/ml | 62.6 ± 1.5 U/ml | 60.4 ± 2.2 U/ml | 99.8 ± 2 nM | 
6 | CC(C)(C)C(=O)N[C@@H](COCc1ccccc1)C(=O)NCCNC(=O)/C(C#N)=C/c1ccc(O)cc1 [Compound 5g, (S,E) - N - (2-(2-pivalamido-3-(benzyloxy)propanamido)ethyl)-2-cyano-3-(4-hydroxyphenyl)acrylamide] |  | 38.3 ± 2.6 U/ml | 33.9 ± 1.4 U/ml | 30.4 ± 3.7 U/ml | 273 ± 4.6 nM | 
7 | CC(C)(C)C(=O)N[C@H](COCc1ccccc1)C(=O)NCCNC(=O)/C(C#N)=C/c1ccc(O)cc1 [Compound 5h, (R,E) - N - (2-(2-pivalamido-3-(benzyloxy)propanamido)ethyl)-2-cyano-3-(4-hydroxyphenyl)acrylamide] |  | 50.3 ± 3.2 U/ml | 45.2 ± 1.3 U/ml | 42.8 ± 1.1 U/ml | 252 ± 4.6 nM | 
8 | CC(C)(C)C(=O)N[C@@H](COCc1ccccc1)C(=O)NCCCNC(=O)/C(C#N)=C/c1ccc(O)cc1 [Compound 5i, (S,E) - N - (3-(2-pivalamido-3-(benzyloxy)propanamido)propyl)-2-cyano-3-(4-hydroxyphenyl)acrylamide] |  | 36.4 ± 3.5 U/ml | 35.6 ± 3.9 U/ml | 35.3 ± 2.1 U/ml | 221 ± 3.9 nM | 
9 | CC(C)(C)C(=O)N[C@H](COCc1ccccc1)C(=O)NCCCNC(=O)/C(C#N)=C/c1ccc(O)cc1 [Compound 5j, (R,E) - N - (3-(2-pivalamido-3-(benzyloxy)propanamido)propyl)-2-cyano-3-(4-hydroxyphenyl)acrylamide] |  | 38.6 ± 1.9 U/ml | 35.3 ± 1.7 U/ml | 30.6 ± 2.2 U/ml | 247 ± 4.5 nM | 
10 | O=c1c2cc(O)c(O)cc2oc2cc(O)c([C@@H]3O[C@H](CO)[C@@H](O)[C@H](O)[C@H]3O)c(O)c12 [Mangiferin, reference compound] |  | 75.3 ± 0.4 U/ml | 74.8 ± 0.8 U/ml | 73.2 ± 7.2 U/ml | 138 ± 2.2 nM | 
11 | Cc1c(C)c2c(c(C)c1O)CCC(C)(C(=O)O)O2 (centres unmarked) [Trolox, 6-hydroxy-2,5,7,8-tetramethylchroman-2-carboxylic acid, reference compound] |  | 95.3 ± 3.7 U/ml | 92.8 ± 2.7 U/ml | 85.2 ± 4.3 U/ml |  | 

— paper PMC4842970, “Bioactivity Focus of α-Cyano-4-hydroxycinnamic acid (CHCA) Leads to Effective Multifunctional Aldose Reductase Inhibitors” (Scientific Reports, 2016)
